These results are taken from patent publication US5104980A, “Chromogenic dibenzoxazepinone and dibenzothiazepinone enzyme substrates” (Miles Inc., priority 1989, dated 1992).

One may read the Km as the substrate concentration at which the rate is half of its maximum.

In the test the test system is β-galactosidase. Nature of the test: cleavage of the chromogenic substrate by β-galactosidase in 50 mM phosphate buffer. It counts as biochemical. The settings on record: 50 mM phosphate buffer at pH 7.4 containing 5 mM MgCl2; in the presence of β-galactosidase. As for the experimental part: When dissolved in 50 mM phosphate buffer at pH 7.4 containing 5 mM magnesium chloride (MgCl2) compound (23)+(24) (mixture) had λmax of 454 nm (^ε =22,000) and 344 nm (^ε =14,000).

Turning to “8-β-D-Galactopyranosyloxy-11-methyl-11H-dibenz[b,e] [1,4]oxazepin-1-one (23) and 2-β-D-galactopyranosyloxy-11-methyl-11H-dibenz[b,e][1,4]oxazepin-8-one (24) [(23)+(24)]”, the Km worked out at 75 µM and the “rate (Kcat) of cleavage of the substrate to (20)” value is 1.32×10^4 mol. min^-1 /mol. active site.
